Data from patent publication US20050227249A1, “Polymorphisms in the human MDR-1 gene and their use in diagnostic and therapeutic applications” (priority 1999, published 2005).
Values joined by “and” are separate entries in the source; they are usually repeats but may differ in a detail not shown here. Equal values may be shown once. One block for each compound: values may come before it.

Legend:
[1] = Phenytoin blood levels in patients by 2C9/2C19 and MDR-1 exon 26 (C3435T) genotype; format: in vivo, human
[2] = digoxin maximum plasma concentration (Cmax) at steady state after oral application, by MDR-1 exon 26 genotype; format: in vivo, human; details: 7 T/T vs 7 C/C volunteers, T/T higher, p=0.006
Description: For a further validation of the correlation of MDR-1 genotype with intestinal digoxin uptake, additional volunteers of another clinical study at the University Medical Center, Charite in Berlin that addresses blood levels of digoxin after oral application (without rifampin induction and PGP protein determination, Johne et al. (1999), Clin.
In this study, maximum plasma concentrations (Cmax) were evaluated during steady state conditions of digoxin.

[3] = molecular target: T1, MDR-1 (Homo sapiens, UniProt P08183); assay: clinical; set-up: from tissue; host or cells: colon (intestine) of human probands, in vivo; details: in vivo, po, 1 mg, digoxin concentration in blood (Dig AUC)
T1 sequence (P08183 whole entry): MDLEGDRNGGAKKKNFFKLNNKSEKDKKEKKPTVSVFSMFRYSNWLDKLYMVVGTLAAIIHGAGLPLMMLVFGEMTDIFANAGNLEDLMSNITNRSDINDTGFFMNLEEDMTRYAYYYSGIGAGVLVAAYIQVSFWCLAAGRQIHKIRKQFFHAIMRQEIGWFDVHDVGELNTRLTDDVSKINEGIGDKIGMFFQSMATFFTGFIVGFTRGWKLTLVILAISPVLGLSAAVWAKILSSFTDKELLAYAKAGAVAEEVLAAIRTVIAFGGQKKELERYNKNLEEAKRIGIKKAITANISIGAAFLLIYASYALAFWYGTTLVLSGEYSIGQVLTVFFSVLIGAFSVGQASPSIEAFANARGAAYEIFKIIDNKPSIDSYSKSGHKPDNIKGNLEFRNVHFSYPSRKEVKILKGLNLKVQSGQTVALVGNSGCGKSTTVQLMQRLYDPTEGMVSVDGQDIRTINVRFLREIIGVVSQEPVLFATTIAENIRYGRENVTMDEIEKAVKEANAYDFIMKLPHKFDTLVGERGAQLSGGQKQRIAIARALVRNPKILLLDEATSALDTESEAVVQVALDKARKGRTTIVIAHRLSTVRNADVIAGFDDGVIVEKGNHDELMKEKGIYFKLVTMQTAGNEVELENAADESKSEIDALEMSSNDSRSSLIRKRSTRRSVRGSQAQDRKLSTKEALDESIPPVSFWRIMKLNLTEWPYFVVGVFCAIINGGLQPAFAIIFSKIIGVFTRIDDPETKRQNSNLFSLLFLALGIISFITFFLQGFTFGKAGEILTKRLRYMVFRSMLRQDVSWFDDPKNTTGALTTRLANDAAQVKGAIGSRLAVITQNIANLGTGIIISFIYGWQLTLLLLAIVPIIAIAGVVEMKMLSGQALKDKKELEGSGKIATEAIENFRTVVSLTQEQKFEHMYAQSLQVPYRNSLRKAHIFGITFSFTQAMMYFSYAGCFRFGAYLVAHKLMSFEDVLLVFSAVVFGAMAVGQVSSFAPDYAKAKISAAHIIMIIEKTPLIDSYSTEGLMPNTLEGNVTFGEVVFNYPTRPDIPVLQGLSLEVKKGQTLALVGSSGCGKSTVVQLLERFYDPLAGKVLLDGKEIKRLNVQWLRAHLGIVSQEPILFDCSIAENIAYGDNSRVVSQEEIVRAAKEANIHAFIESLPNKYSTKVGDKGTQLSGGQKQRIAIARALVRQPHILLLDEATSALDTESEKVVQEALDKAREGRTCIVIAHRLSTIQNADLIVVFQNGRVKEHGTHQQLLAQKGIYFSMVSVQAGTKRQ
Excerpt: To identify potential direct correlations of MDR-1 polymorphisms with clinical relevant phenotypes in humans, probands from a study at the Dr. Margarete Fischer-Bosch-Institut for Clinical Pharmacology in Stuttgart, were subjected to the determination of MDR-1 polymorphisms as described in examples 2-4. The expression levels of MDR-1 in the colon and liver of these patients was also estimated by established immunohistochemical detection of the MDR-1 protein. In the proband population, in addition to measurements of the expression levels of MDR-1 in the colon, measurements of MDR-1 upon induction of the gene by rifampicine were performed. Also, the in vivo activity of MDR-1 under noninduced and rifampicine induced conditions was determined by measuring the blood concentrations of orally administered digoxin (1 mg), which is a known MDR-1 substrate and whose blood concentration also depends on the MDR-1 activity in the colon. The results of the MDR-1 measurements, rifampicine induction experiments and digoxin-experiments, as well as results from the MDR-1 polymorphism detection analysis in the proband population show correlations between MDR-1 gene expression and MDR-1 in vivo activity with certain polymorphisms. […]

[4] = molecular target: T1, MDR-1; assay: clinical; set-up: The expression levels of MDR-1 in the colon and liver of these patients was also estimated by established immunohistochemical detection; from tissue; host or cells: colon (intestine) of human probands, in vivo; details: in vivo
Excerpt: To identify potential direct correlations of MDR-1 polymorphisms with clinical relevant phenotypes in humans, probands from a study at the Dr. Margarete Fischer-Bosch-Institut for Clinical Pharmacology in Stuttgart, were subjected to the determination of MDR-1 polymorphisms as described in examples 2-4. The expression levels of MDR-1 in the colon and liver of these patients was also estimated by established immunohistochemical detection of the MDR-1 protein. In the proband population, in addition to measurements of the expression levels of MDR-1 in the colon, measurements of MDR-1 upon induction of the gene by rifampicine were performed. Also, the in vivo activity of MDR-1 under noninduced and rifampicine induced conditions was determined by measuring the blood concentrations of orally administered digoxin (1 mg), which is a known MDR-1 substrate and whose blood concentration also depends on the MDR-1 activity in the colon. The results of the MDR-1 measurements, rifampicine induction experiments and digoxin-experiments, as well as results from the MDR-1 polymorphism detection analysis in the proband population show correlations between MDR-1 gene expression and MDR-1 in vivo activity with certain polymorphisms.
This was done by measuring the blood concentrations of orally administered digoxin which is a known MDR-1 substrate and whose blood concentration also depends on the MDR-1 activity in the colon. […] The probands that harbor the T allele (correlates with weaker MDR-1 expression, see Tab. 4), contain higher blood levels of digoxin compared to samples which have only the corresponding homozygous C-allele. […] This is totally consistent with the function of MDR-1 in the colon, i.e. re-transport and elimination of substrates from the uptaking cells into the lumen of the colon. […] The difference of the digoxin blood levels between these individuals was more than 4-fold.

[5] = tested on: MDR-1; assay: MDR-1 (PGP) protein levels in probands upon induction by rifampicine, immunohistochemical detection; format: in vivo, human; details: for PGP concentration, mean / PGP concentration: rifampicine-induced probands; for PGP concentration: individual probands
Description: The expression levels of MDR-1 in the colon and liver of these patients was also estimated by established immunohistochemical detection of the MDR-1 protein. In the proband population, in addition to measurements of the expression levels of MDR-1 in the colon, measurements of MDR-1 upon induction of the gene by rifampicine were performed. Also, the in vivo activity of MDR-1 under noninduced and rifampicine induced conditions was determined by measuring the blood concentrations of orally administered digoxin (1 mg), which is a known MDR-1 substrate and whose blood concentration also depends on the MDR-1 activity in the colon.

highest blood concentration, increase compared to the normal population ([1]; 2C9 deficient patient with low PGP (T/T) genotype, within a group of 100 patients): about twofold
Phenytoin blood levels ([1]; 2C9 normal metabolizers, MDR-1 genotype CC and CT (intestinal PGP high/medium)): normal
Phenytoin blood levels ([1]; 2C9 normal metabolizers, MDR-1 genotype TT (intestinal PGP low)): normal
Phenytoin blood levels ([1]; 2C9 weak and/or deficient metabolizers, MDR-1 genotype CC and CT (intestinal PGP high/medium)): high
Phenytoin blood levels ([1]; 2C9 weak and/or deficient metabolizers, MDR-1 genotype TT (intestinal PGP low)): VERY HIGH
SMILES: O=C1NC(=O)C(c2ccccc2)(c2ccccc2)N1 [Phenytoin]

mean difference in digoxin Cmax between T/T and C/C groups [2]: 38%
AUC [3]: 63.6 ng·h/mL
difference of the digoxin blood levels between homozygous T and homozygous C proband [4]: more than 4 fold
highest rif-induced dig blood level [4]: 12.3
lowest rif-induced dig blood level [4]: 57.3
SMILES: C[C@H]1O[C@@H](O[C@H]2[C@@H](O)C[C@H](O[C@H]3[C@@H](O)C[C@H](O[C@H]4CC[C@@]5(C)[C@H](CC[C@@H]6[C@@H]5C[C@@H](O)[C@]5(C)[C@@H](C7=CC(=O)OC7)CC[C@]65O)C4)O[C@@H]3C)O[C@@H]2C)C[C@H](O)[C@@H]1O [digoxin]

SMILES: CO[C@H]1/C=C/O[C@@]2(C)Oc3c(C)c(O)c4c(O)c(c(/C=N/N5CCN(C)CC5)c(O)c4c3C2=O)NC(=O)/C(C)=C\C=C\[C@H](C)[C@H](O)[C@@H](C)[C@@H](O)[C@@H](C)[C@H](OC(C)=O)[C@@H]1C [rifampicine]
highest rif-induced activity (PGP concentration) ([5]; proband homozygous C/C at position 176): 1264.9
lowest rif-induced activity (PGP concentration) ([5]; proband homozygous T/T at position 176): 142.1
difference of induced MDR-1 expression levels between homozygous C and homozygous T proband ([5]; rifampicin-induced, highest (C/C) vs lowest (T/T) proband): 9 fold
PGP concentration, mean ([5]; T-allele absent (C/C only)): 924 relative units
PGP concentration, mean ([5]; T-allele present (T/T and T/C)): 587 relative units
PGP concentration ([5]; T-allele absent (C/C only)): 423 relative units and 1264 relative units and 1086 relative units
PGP concentration ([5]; T-allele present (T/T and T/C) at position 176 in exon 26): 142 relative units and 1085 relative units and 520 relative units and 601 relative units
